Patent publication US9139568B2 (Merck Patent GmbH, priority 2011, dated 2015)

Tests used:
[1] = target: AKT (Homo sapiens (Human), UniProt P31749); test: AKT Enyzme Assay; type: biochemical; details: His-AKT (Full Length), 160 uM ATP, mobility shift (Caliper)
Method: A TTP Mosquito liquid handling instrument is used to place 125 nl of the appropriate concentration of inhibitor in 100% DMSO (for a dose response curve calculation) into each well of a 384-well plate.
The reaction is incubated for 90 min at 25 C, and then stopped by the addition of 70 μl of Stop buffer (100 mM HEPES pH 7.5, 0.015% Brij-35, 10 mM EDTA (Sigma, E7889)).
The plate is read on a Caliper LC 3000 in an Off-Chip mobility shift assay format, using the following parameters for a 12-sipper chip: screening pressure −2.3 psi, upstream voltage −500, and downstream voltage −3000. These conditions cause unphosphorylated substrate and phosphorylated product peptide to resolve as separate peaks allowing direct measurement of percentage of conversion of substrate to product. The percent conversion can be plotted against concentration of inhibitor to produce a sigmoidal dose response curve, from which an IC50 can be calculated.

[2] = target: P70S6K (Homo sapiens (Human), UniProt P23443, T412E); test: P70S6K Enzyme Assay; type: biochemical; details: P70S6K T412E mutant, 24 μM ATP, mobility shift (Caliper)
Method: P70S6K inhibitor compounds are diluted and plated in 96 well plates. […] The reaction is incubated for 90 min at 25° C., before the addition of 10 mM EDTA to stop the reaction. The proportion of substrate and product (phosphorylated) peptide is analysed on a Caliper Life Sciences Lab Chip 3000, using a pressure of −1.4 psi, and upstream and downstream voltages of −3000 and −700 respectively. Product peaks are resolved before substrate peaks on the resulting chromatograms.

Sequence of P70S6K (P23443 1-421 T412E): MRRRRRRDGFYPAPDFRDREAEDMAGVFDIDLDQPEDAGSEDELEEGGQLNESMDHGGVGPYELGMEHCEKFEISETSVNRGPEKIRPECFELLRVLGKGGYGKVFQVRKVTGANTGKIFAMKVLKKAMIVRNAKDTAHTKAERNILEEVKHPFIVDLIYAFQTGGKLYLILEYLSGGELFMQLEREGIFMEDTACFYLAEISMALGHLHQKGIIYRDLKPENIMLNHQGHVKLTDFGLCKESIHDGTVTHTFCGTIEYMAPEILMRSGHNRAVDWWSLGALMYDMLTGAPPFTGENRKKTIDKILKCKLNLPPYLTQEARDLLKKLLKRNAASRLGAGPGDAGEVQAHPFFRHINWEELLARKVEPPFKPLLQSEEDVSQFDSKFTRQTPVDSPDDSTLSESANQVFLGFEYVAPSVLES
Sequence of AKT (P31749 whole entry): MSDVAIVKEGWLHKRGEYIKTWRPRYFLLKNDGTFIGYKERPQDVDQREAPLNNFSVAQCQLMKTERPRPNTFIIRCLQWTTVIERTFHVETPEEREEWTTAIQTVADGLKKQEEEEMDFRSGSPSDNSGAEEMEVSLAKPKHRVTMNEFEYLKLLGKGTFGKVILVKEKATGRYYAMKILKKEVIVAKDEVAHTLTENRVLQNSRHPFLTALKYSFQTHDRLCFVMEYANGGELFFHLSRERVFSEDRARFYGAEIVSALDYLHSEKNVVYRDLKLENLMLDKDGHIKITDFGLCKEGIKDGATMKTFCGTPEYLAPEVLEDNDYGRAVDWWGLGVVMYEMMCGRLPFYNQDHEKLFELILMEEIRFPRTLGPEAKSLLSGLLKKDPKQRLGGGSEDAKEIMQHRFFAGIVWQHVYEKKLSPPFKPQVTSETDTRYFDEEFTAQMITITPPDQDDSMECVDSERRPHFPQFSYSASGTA

Structure (SMILES)	IC50 [1]	IC50 [2]
CN(C)C(CNc1ccc(C(N)=O)c2ncncc12)c1cccc(Cl)c1 (racemic) [Example 68, 5-((2-(3-chlorophenyl)-2-(dimethylamino)ethyl)amino)quinazoline-8-carboxamide]	> 100000 nM	2600 nM
NC(=O)c1ccc(N2CCC(OCc3ccccc3)C2)c2cncnc12 (racemic) [Example 65, 5-(3-(benzyloxy)pyrrolidin-1-yl)quinazoline-8-carboxamide]	> 100000 nM	710 nM
Cc1ccc(Cl)cc1N1CCN(c2ccc(C(N)=O)c3ncncc23)CC1 [Example 111, 5-[4-(5-chloro-2-methylphenyl)-piperazin-1-yl]-quinazoline-8-carboxylic acid amide]	> 100000 nM	> 100000 nM
NC(=O)c1ccc(NC[C@H]2CCNC2)c2cncnc12 [Example 61, (S)-5-((pyrrolidin-3-ylmethyl)amino)quinazoline-8-carboxamide]	> 100000 nM	1700 nM
NC(=O)c1ccc(N2CCC(O)(c3ccccc3)C2)c2cncnc12 (racemic) [Example 66, 5-(3-hydroxy-3-phenylpyrrolidin-1-yl)quinazoline-8-carboxamide]	> 100000 nM	1800 nM
NC(=O)c1ccc(NCCCCc2ccccc2)c2cncnc12 [Example 102, 5-(4-phenylbutylamino)quinazoline-8-carboxamide]	> 100000 nM	87 nM
NC(=O)c1ccc(N2CCN(c3ccc(F)c(F)c3)CC2)c2cncnc12 [Example 92, 5-[4-(3,4-difluoro-phenyl)-piperazin-1-yl]-quinazoline-8-carboxylic acid amide]	> 100000 nM	1000 nM
NC(=O)c1ccc(N2CCN(c3ccc(F)cc3)CC2)c2cncnc12 [Example 108, 5-[4-(4-fluorophenyl)-piperazin-1-yl]-quinazoline-8-carboxylic acid amide]	> 100000 nM	2300 nM
NC(=O)c1ccc(N(CCc2ccccc2)[C@@H]2CCCNC2)c2cncnc12 [Example 105, 5-[phenethyl-[(3R)-3-piperidyl]amino]quinazoline-8-carboxamide]	> 100000 nM	11000 nM
Cc1cccc(N2CCC(Nc3ccc(C(N)=O)c4ncncc34)CC2)c1 [Example 57, 5-((1-(m-tolyl)piperidin-4-yl)amino)quinazoline-8-carboxamide]	> 100000 nM	22000 nM
NC(=O)c1ccc(NC[C@@H]2CCNC2)c2cncnc12 [Example 60, (R)-5-((pyrrolidin-3-ylmethyl)amino)quinazoline-8-carboxamide]	> 100000 nM	4800 nM
NC(=O)c1ccc(N2CCN(c3cccc(Cl)c3)CC2)c2cncnc12 [Example 96, 5-[4-(3-chloro-phenyl)-piperazin-1-yl]-quinazoline-8-carboxylic acid amide]	> 100000 nM	10000 nM

The remaining lines, values ahead:

IC50 [1]	IC50 [2]	Structure (SMILES)
> 100000 nM	12000 nM	NC(=O)c1ccc(N2CCN(c3ccc(F)c(Cl)c3)CC2)c2cncnc12 [Example 94, 5-[4-(3-chloro-4-fluorophenyl)-piperazin-1-yl]-quinazoline-8-carboxylic acid amide]
5700 nM	350 nM	NC(=O)c1ccc(N[C@@H]2CNCC[C@H]2c2ccc(F)c(Cl)c2)c2cncnc12 (single isomer, unassigned) [Example 78]
23000 nM	11000 nM	NC(=O)c1ccc(N2CCN(c3cccc(C(F)(F)F)c3)CC2)c2cncnc12 [Example 109, 5-[4-(3-trifluoromethylphenyl)-piperazin-1-yl]-quinazoline-8-carboxylic acid amide]
8100 nM	380 nM	NC(=O)c1ccc(N2CCC(c3cccc(C(F)(F)F)c3)C(N)C2)c2cncnc12 (racemic) [Example 107, 5-[3-Amino-4-(3-trifluoromethyl-phenyl)-piperidin-1-yl]-quinazoline-8-carboxylic acid amide]
3100 nM	240 nM	NC(=O)c1ccc(N2CCC(CCc3ccccc3)C2)c2cncnc12 (racemic) [Example 64, 5-(3-phenethylpyrrolidin-1-yl)quinazoline-8-carboxamide]
2400 nM	120 nM	NC(=O)c1ccc(NCCc2cccc(F)c2)c2cncnc12 [Example 99, 5-[2-(3-fluorophenyl)ethylamino]quinazoline-8-carboxamide]
900 nM	52 nM	NC(=O)c1ccc(N[C@@H]2CNCC[C@H]2c2ccc(F)cc2)c2cncnc12 (single isomer, unassigned) [Example 81]
15000 nM	3000 nM	NC(=O)c1ccc(N2CCN(c3ccccc3)CC2)c2cncnc12 [Example 91, 5-[4-phenyl-piperazin-1-yl]-quinazoline-8-carboxylic acid amide]
2000 nM	290 nM	NC(=O)c1ccc(NC2CNCCC2c2ccc(F)cc2)c2cncnc12 (centres unmarked) [Example 79, 5-((4-(4-fluorophenyl)piperidin-3-yl)amino)quinazoline-8-carboxamide]
2100 nM	140 nM	NC(=O)c1ccc(NC2CNCCC2c2cccc(C(F)(F)F)c2)c2cncnc12 (centres unmarked) [Example 74, 5-((4-(3-(trifluoromethyl)phenyl)piperidin-3-yl)amino)quinazoline-8-carboxamide]
4800 nM	290 nM	NC(=O)c1ccc(NCCc2ccc(F)cc2)c2cncnc12 [Example 100, 5-[2-(4-fluorophenyl)ethylamino]quinazoline-8-carboxamide]
9000 nM	390 nM	Cc1cccc(C2CCNCC2Nc2ccc(C(N)=O)c3ncncc23)c1 (centres unmarked) [Example 73, 5-((4-(m-tolyl)piperidin-3-yl)amino)quinazoline-8-carboxamide]
6400 nM	770 nM	NC(=O)c1ccc(N2CCN(c3cccc(F)c3)CC2)c2cncnc12 [Example 95, 5-[4-(3-fluoro-phenyl)-piperazin-1-yl]-quinazoline-8-carboxylic acid amide]
14000 nM	220 nM	CN(CCc1ccccc1)c1ccc(C(N)=O)c2ncncc12 [Example 103, 5-[methyl(phenethyl)amino]quinazoline-8-carboxamide]
570 nM	33 nM	NC(=O)c1ccc(NC2CNCCC2c2ccc(F)c(Cl)c2)c2cncnc12 (centres unmarked) [Example 76, 5-((4-(3-chloro-4-fluorophenyl)piperidin-3-yl)amino)quinazoline-8-carboxamide]
130 nM	8.1 nM	NC(=O)c1ccc(NC2CNCCC2c2ccc(Cl)c(F)c2)c2cncnc12 (centres unmarked) [Example 75, 5-((4-(4-chloro-3-fluorophenyl)piperidin-3-yl)amino)quinazoline-8-carboxamide]
